Measured values reported in PMC3790268 (Bioorganic & medicinal chemistry letters, 2013).

Biological target: rat nNOS (Rattus norvegicus, UniProt P29476)
Conditions: compared with (R,R)-16a, (S,S)-16b and (R)-6b

decreased affinity for nNOS: 10 fold
Compound: Cc1cc(N)nc(COC[C@@H](N)[C@H](C)OCc2cc(C)cc(N)n2)c1 [(S,R)-16c]
